Assay results taken from PMC4506598, “A small molecular agent YL529 inhibits VEGF-D-induced lymphangiogenesis and metastasis in preclinical tumor models in addition to its known antitumor activities” (BMC Cancer, 2015).
Where two headings read alike, the source gives them in different places.

Legend:
HLECs [1] = experiment: CCK-8 cell viability assay; format: cell-based; conditions: Homo sapiens, 48 h, read-out: IC50, proliferation of HLECs
Experimental: (§1) Cell viability assays were performed using CCK-8 kit. Briefly, VEGF-D-LL/2 cells, parental LL/2 cells and HLECs were treated with various concentrations of YL529 in 96-well culture plates for 48 h. CCK-8 was added to the cells and the plate was incubated for an additional 2–4 h. The optical density (OD) was then measured at 450 nm using a Spectra MAX M5 microplate spectrophotometer (Molecular Devices, Sunnyvale, CA).
CCK-8 assay was used to evaluate the potential proliferation inhibition effect of HLECs after treated with YL529 or vehicle for 48 h.

[2] = pharmacokinetics after oral administration in mice; format: in vivo, C57 BL/6 mice; conditions: for half-life: po
Experimental: C57 BL/6 mice (n = 3 per time point) were administered 150 mg/kg YL529 orally. Blood samples of the mice were collected at appropriate intervals and the plasma concentration of YL529 was analyzed by HPLC (Waters, MA, USA). The pharmacokinetic characteristics and parameters were analyzed using Pharmacokinetic Software of Drug and Statistics (DAS, edited and published by the Mathematical Pharmacology Professional Committee of China, Shanghai, China).

p-VEGFR-3 = experiment: western blot of VEGFR-3/p-VEGFR-3 in HLECs; format: cell-based, human; conditions: after 2 h of treatment
Experimental: (§2) Standard western blot analysis was performed. Briefly, Cell lysates were washed with phosphate buffered saline (PBS) and lysed in RIPA (radioimmunoprecipitation assay) buffer. Then lysates were centrifuged at 12000 g for 30 min at 4 °C. The Bio-Rad Protein Assay kit (Bio-Rad Laboratories) was used to determine the samples protein concentration according to the manufacturers’ recommendations. The lysates were dissolved in 5 × SDS sample buffer and denatured, then subjected to 6 % to 12 % SDS-PAGE (sodium dodecyl sulfate polyacrylamide gel electrophoresis) according to molecular weight and transferred onto PVDF (polyvinylidene fluoride) (Bio-Rad, Hercules, CA) membranes. Membranes were blocked for 1 h in 5 % dried milk in TBS/T at room temperature and incubated overnight at 4 °C with the primary antibodies and horseradish peroxidase-conjugated secondary antibodies. Protein bands were visualized with enhanced chemiluminescent substrate (Amersham Biosciences Corp., Piscataway, NJ).
To gain in-depth insight into the molecular mechanism of anti-lymphangiogenesis effects of YL529, the expression levels of VEGFR-3/p-VEGFR-3 in HLECs were analyzed by western blotting in vitro.

HLECs [3] = experiment: scratch-induced (wound healing) migration assay; format: cell-based; conditions: Homo sapiens, read-out: inhibition of cell migration
Experimental: The anti-metastasis effect of YL529 was determined using a scratch-induced cell migration assay in vitro [24, 25]. Briefly, 1 × 10^5 HLECs were plated in 6 well plates and synchronized by serum-free ECM medium for 8 h, then used a micropipette tip to create a 2 mm-wide linear gap. Cells were washed to remove non-adherent cells and further incubated with fresh ECM medium containing or lacking YL529. An inverted microscope (Carl Zeiss, Germany) was used to photograph after YL529 treatment for another 48 h.
We next examined the effects of YL529 on HLECs migration using a wound healing migration assay.

HLECs [4] = experiment: transwell invasion assay; format: cell-based; conditions: Homo sapiens, read-out: inhibition of cell invasion
Experimental: Transwell migration assay was adopted to indicate the anti-metastasis effect of YL529 [26]. Briefly, the transwell were pre-coated with 25 % Matrigel Matrix containing growth factors (BD Biosciences, Bedford, MA) for 30 min at 37 °C. And then the bottom chambers were filled with 600 μl ECM medium and the top chambers were seeded with 4 × 10^4 cells HLECs (100 μl/well). The top and bottom chambers were incubated for another 24 h. Then cells on the top surface of the membrane were scraped with a cotton swab. Cells on the bottom side of the membrane were fixed with 4 % paraformaldehyde and stained with 0.1 % crystal violet (Sigma-Aldrich, USA). An inverted microscope (Zeiss, Axiovert 200, Germany) was used to obtain the images and the invading cells were quantified.
To further measure the effect of YL529 on HLECs invasion, we used a transwell assay and measured the number of HLECs that passed through a membrane barrier following treatment with various concentrations of YL529 [29].

VEGF-D-LL/2 cells [5] = experiment: western blot of p-JNK, Bax, Bcl-2 in VEGF-D-LL/2 cells; format: cell-based, murine
Experimental: as §2

parental LL/2 cells = experiment: CCK-8 cell viability assay; format: cell-based, murine; conditions: Mus musculus, 48 h, read-out: IC50, proliferation of parental LL/2 cells
Experimental: Human lymphatic endothelial cells (HLECs) were purchased from the ScienCell™ Research Laboratories and cultured in endothelial cell medium (ECM) containing 5 % fetal bovine serum (FBS), 1 % endothelial cell growth supplement (ECGS), 100 IU/mL penicillin and 100 μg/mL streptomycin. Lewis lung carcinoma LL/2 cells were obtained from American Type Culture Collection (ATCC) and cultured in DMEM containing 10 % FBS, 100 IU/mL penicillin and 100 μg/mL streptomycin. Subcultures were performed with trypsin-EDTA. All cells were incubated in an atmosphere of 5 % CO2 at 37 °C.
as §1
(§3) VEGF-D-LL/2 cells were previously established by transfection with the pcDNA3.1 (+) expression vector containing mouse VEGF-D [31]. Similar to the previous data from our group, this study uses a VEGF-D antibody that detects the mature form of VEGF-D, because the fully mature cleaved form of 21 kD has the greatest affinity for the receptors, and can bind and activate not only VEGFR-2 but also VEGFR-3.

VEGF-D-LL/2 tumors [6] = experiment: VEGF-D-LL/2 syngeneic muscle tumor metastasis model; format: in vivo, C57 BL/6 mice; conditions: for percent of mice with local lymph node metastasis: vehicle 80 % ~ 90 %
Experimental: (§4) Seven-week-old female C57 BL/6 mice (Beijing animal center, Beijing, China) were used. VEGE-D-LL/2 cells (1 × 10^6) were injected intramuscularly and subcutaneously in hind limb of mice. The mice were randomized into 5 groups (n = 10 per groups) and orally administered 37.5, 75 and 150 mg/kg/day YL529, vehicle and saline alone (N.S.), respectively for 14 days when tumors became visible the 10th day after cells were implanted. Tumor growth and mice weight was monitored every 3 days. When animals were sacrificed with CO2 gas at the end of drug administration, tumor tissues, lung organs and local lymph nodes were removed, weighted and calculated by manual. Tumor size was determined by measuring the largest and perpendicular diameters every 3 days, tumor volume was calculated using the formula: volume (mm^3) = 0.5 × length × width^2. In addition, the same subcutaneously tumor models were used to monitor the survival time of experimental mice after drug administration. All animals experiments performed were in accordance with the guidelines of the institute’s Animal Care and Use Committee of Sichuan University (Chengdu, China).
(§5) Tumor tissues from vehicle and 150 mg/kg YL529 groups were fixed in 4 % paraformaldehyde, dehydrated and embedded in paraffin [27]. Sections of these tissues were subsequently incubated with LYVE-1 and corresponding second antibodies and visualized using peroxidase-DAB. TUNEL staining was also performed for fixed tissues (Promega, USA). Quantification was done as described. Briefly, the microvessel counting was done in representative 200× fields or three high-power (400×) fields of the highest vascular density.
(§6) Based on the safety profile and the in vivo pharmacokinetics of YL529, chronic oral administration of YL529 at daily dosages of 37.5 ~ 150 mg/kg/day was chosen to treat the mice with VEGF-D-LL/2 tumors (syngeneic s.c. and muscle models).

VEGF-D-LL/2 cells [7] = experiment: CCK-8 cell viability assay; format: cell-based, murine; conditions: Mus musculus, 48 h, read-out: IC50, proliferation of VEGF-D-LL/2 cells
Experimental: The transfected murine LL/2 Lewis lung carcinoma cells with the pcDNA3.1 (+) expression vector containing mouse VEGF-D (VEGF-D-LL/2 cells) or pcDNA3.1 (vector alone) were transfected as reported before obtained in our laboratory. The cell lines were maintained in an atmosphere of 5 % CO2 at 37 °C in cell culture medium DMEM supplemented with 10 % fetal bovine serum. Western blot analysis was performed to analyze the expression of recombinant VEGF-D of these cells.
as §1, §3

HLECs [8] = experiment: tube formation assay; format: cell-based; conditions: Homo sapiens, 6 h
Experimental: The antilymphogenic effects of YL529 were analyzed in vitro using a tube-formation assay in HLECs. Briefly, 96-well plate was pre-incubated with 100 μl per well of Matrigel Matrix at 37 °C for 30 min, HLECs were seeded at a density of 3 × 10^4 cells per well in ECM medium. And after cultured in the presence or absence of designed concentrations of YL529 on Matrigel Matrix at 37 °C another 6 h, tube formation by endothelial cells was evaluated and photographed under an inverse microscope (Zeiss, Axiovert 200, Germany).
To further understand the mechanism of the anti-lymphogenic effect of YL529, the antilymphogenic tube formation effect of YL529 was analyzed with cultured HLECs in vitro [30]. […] In great contrast, HLECs without YL529 treatment spread and aligned with each other and formed a rich meshwork of branching capillary-like tubules within 6 h (Fig. 2c).

VEGF-D-LL/2 tumors [9] = experiment: VEGF-D-LL/2 syngeneic s.c. tumor model; format: in vivo
Experimental: as §4, §5, §6

[10] = high-dose toxicity, organ parameters in rats; format: in vivo; conditions: SD rats; for Heart index / Kidney index / Liver index / Lung index / Spleen index: oral 6000 mg/kg
VEGFR2 = conditions: 10 μM; cited from earlier work
safety profile in mice = format: in vivo; conditions: 150 mg/kg daily for 18 days
Experimental: To evaluate the safety profile of YL529 (150 mg/kg) in vivo, we have observed the gross measures such as weight loss, life span, behavior and feedings. Moreover, we have also investigated the mortality and clinical signs of C57BL/6 mice throughout oral administration period. In addition, blood samples and heart, liver, spleen, lung, and kidney tissues of mice were collected; the histopathological, serum biochemistry and hematological analysis were done to observe the possible pathological changes. In addition, we also evaluated the safety profiles of YL529 after oral administration with high dose (6000 mg/kg) for 14 days.
Currently, side effects are the prevalent shortcomings of anticancer drugs.

VEGFR-3 = conditions: 10 μM; cited from earlier work
[11] = C57 BL/6, mouse, plasma, single dose 150 mg/kg

For CNC(=O)c1cc(Oc2ccc(NC(=O)c3cccc(C(F)(F)F)c3)cc2)ccn1 [YL529, N-methyl-4-(4-(3-(trifluoromethyl)benzamido)phenoxy)picolinamide4-methylbenzenesulfonate], the IC50 (HLECs [1]) was 5.5 µM, the Cmax ([2]; C57 BL/6, mouse, plasma, 150 mg/kg, read-out: peak plasma concentration (Cmax)) was 18000 ng/mL and the half-life ([2]; C57 BL/6, mouse, plasma, 150 mg/kg, single dose 150 mg/kg, read-out: t1/2z (converted)) was 4.11 h. For the same compound, the half-life ([2]; C57 BL/6, mouse, plasma, 150 mg/kg, single dose 150 mg/kg, read-out: t1/2β (converted)) was 6.03 h, the AUC(0-inf) [2, 11] was 171 µg·h/mL and the AUC(0-t) [2, 11] was 167 µg·h/mL. The Tmax [2, 11] was 2 h, the Cmax ([2]; single dose 150 mg/kg) was 18030 ng/mL and the T1/2α ([2]; single dose 150 mg/kg) was 1.39 h. For the same compound, the “phosphorylation of VEGFR-3” value (p-VEGFR-3) was “potently inhibited”, the “total expression of VEGFR-3” value (p-VEGFR-3) was “no change” and the inhibition at 2.5 µM (HLECs [3]; 2.5 μM) was 44.3%. The inhibition at 5 µM (HLECs [3]; 5 μM) was 66.8%, the inhibition at 10 µM (HLECs [3]; 10 μM) was 79.8% and the inhibition at 2.5 µM (HLECs [4]; 2.5 μM, compared with vehicle) was 28%. For the same compound, the inhibition at 5 µM (HLECs [4]; 5 μM) was 65.9%, the inhibition at 10 µM (HLECs [4]; 10 μM) was 90.2% and the “expression level of Bcl-2” value (VEGF-D-LL/2 cells [5]) was “increased”. The “expression level of p-JNK” value (VEGF-D-LL/2 cells [5]) was “decreased”, the IC50 (parental LL/2 cells) was 9.6 µM and the “number of mice with lung metastasis and inguinal lymph node metastasis” value (VEGF-D-LL/2 tumors [6]) was “significantly reduced”. For the same compound, the “percent of mice with local lymph node metastasis” value (VEGF-D-LL/2 tumors [6]; 37.5 mg/kg group) was 50%, the “lymphangiogenesis in tumor tissues (LYVE-1 staining), change vs vehicle group” value (VEGF-D-LL/2 tumors [6]; 150 mg/kg for 14 days) was 34.71% and the “percent of mice with local lymph node metastasis” value (VEGF-D-LL/2 tumors [6]; 150 mg/kg group) was 20%. For the same compound, the body weight (VEGF-D-LL/2 tumors [6]; end of drug administration) was “no loss of body weight”, the IC50 (VEGF-D-LL/2 cells [7]) was 7.2 µM and the inhibition at 10 µM (HLECs [8]) was 85.7%. For the same compound, the “apoptotic tumor cells (TUNEL), increase vs. vehicle” value (VEGF-D-LL/2 tumors [9]; 150 mg/kg) was 20 fold, the “mice survived to 54 days” value (VEGF-D-LL/2 tumors [9]; 150 mg/kg group) was 60% and the “mice survived to 40 days” value (VEGF-D-LL/2 tumors [9]; YL529 treated groups) was 90%. For the same compound, the body weight (VEGF-D-LL/2 tumors [9]; at this dosage) was “no loss of body weight”, the tumor volume reduction (VEGF-D-LL/2 tumors [9]; compared with vehicle-treated group, oral, dose not given) was 66.22% and the “weight changes of major organs (heart, liver, spleen, lung, kidney and brain)” value ([10]; 6000 mg/kg daily for 14 days) was “no obvious weight changes”. It also gave a Heart index ([10]; female) of 0.42 ± 0.09%, a Kidney index ([10]; female) of 0.38 ± 0.09% and a Liver index ([10]; female) of 3.13 ± 0.09%. For the same compound, the Lung index ([10]; female) was 0.43 ± 0.06%, the Spleen index ([10]; female) was 0.25 ± 0.03% and the Heart index ([10]; male) was 0.42 ± 0.06%. For the same compound, the Kidney index ([10]; male) was 0.38 ± 0.09%, the Liver index ([10]; male) was 3.09 ± 0.13% and the Lung index ([10]; male) was 0.42 ± 0.09%. For the same compound, the Spleen index ([10]; male) was 0.24 ± 0.04%, the “inhibition of VEGFR2 activity” value (VEGFR2) was “inhibited VEGFR2 activity” and the “body weight loss or tissue damage” value (safety profile in mice) was “no obvious body weight loss or tissue damage”. For the same compound, the “inhibition of VEGFR-3 activity” value (VEGFR-3) was 97%.
